Data reported in the kinase profiling compilation of Christmann-Franck et al. (2016).
Where “and” joins values, the source holds several entries; their conditions need not be identical. Equal entries are not always repeated.

Legend:
Test in all cases: radiometric filter-binding kinase assay, Kinase HotSpot
Conditions in all cases: compound 0.5 µM; ATP 10 µM
[1] = target: DAPK2 (human) (UniProt Q9UIK4)
[2] = target: JAK3 JH1 JH2 (human) (UniProt P52333)
[3] = target: VRK1 (human) (UniProt Q99986)
[4] = target: CAMK2B (human) (UniProt Q13554)
[5] = target: PBK (human) (UniProt Q96KB5)
[6] = target: RET (human) (UniProt P07949)
[7] = target: CAMK2G (human) (UniProt Q13555)
[8] = target: SRPK2 (human) (UniProt P78362)
[9] = target: SYK (human) (UniProt P43405)
[10] = target: PNCK (human) (UniProt Q6P2M8)
[11] = target: TEC (human) (UniProt P42680)
[12] = target: CAMK2A (human) (UniProt Q9UQM7)
[13] = target: HIPK1 (human) (UniProt Q86Z02)
[14] = target: MKNK2 (human) (UniProt Q9HBH9)
[15] = target: IRAK1 (human) (UniProt P51617)
[16] = target: CDK6 CCND3 (human) (UniProt P30281+Q00534)
[17] = target: CDK4 CCND3 (human) (UniProt P30281+P11802)
[18] = target: PRKCA (human) (UniProt P17252)
[19] = target: FRK (human) (UniProt P42685)
[20] = target: SGK3 (human) (UniProt Q96BR1)
[21] = target: CDK4 CCND1 (human) (UniProt P24385+P11802)
[22] = target: TSSK2 (human) (UniProt Q96PF2)
[23] = target: EPHB3 (human) (UniProt P54753)
[24] = target: PRKD3 (human) (UniProt O94806)
[25] = target: MAP4K2 (human) (UniProt Q12851)
[26] = target: CLK1 (human) (UniProt P49759)
[27] = target: STK24 (human) (UniProt Q9Y6E0)
[28] = target: DAPK3 (human) (UniProt O43293)
[29] = target: CAMK2D (human) (UniProt Q13557)
[30] = target: PRKG1 (human) (UniProt Q13976)
[31] = target: AKT3 (human) (UniProt Q9Y243)
[32] = target: TGFBR2 (human) (UniProt P37173)
[33] = target: ITK (human) (UniProt Q08881)
[34] = target: PAK1 (human) (UniProt Q13153)
[35] = target: TAOK1 (human) (UniProt Q7L7X3)
[36] = target: SRPK3 (human) (UniProt Q9UPE1)
[37] = target: CHEK1 (human) (UniProt O14757)
[38] = target: CDK2 CCNE1 (human) (UniProt P24941+P24864)
[39] = target: IKBKE (human) (UniProt Q14164)
[40] = target: PRKACA (human) (UniProt P17612)
[41] = target: TBK1 (human) (UniProt Q9UHD2)

Sequence of EPHB3 (human) (P54753 whole entry, looked up): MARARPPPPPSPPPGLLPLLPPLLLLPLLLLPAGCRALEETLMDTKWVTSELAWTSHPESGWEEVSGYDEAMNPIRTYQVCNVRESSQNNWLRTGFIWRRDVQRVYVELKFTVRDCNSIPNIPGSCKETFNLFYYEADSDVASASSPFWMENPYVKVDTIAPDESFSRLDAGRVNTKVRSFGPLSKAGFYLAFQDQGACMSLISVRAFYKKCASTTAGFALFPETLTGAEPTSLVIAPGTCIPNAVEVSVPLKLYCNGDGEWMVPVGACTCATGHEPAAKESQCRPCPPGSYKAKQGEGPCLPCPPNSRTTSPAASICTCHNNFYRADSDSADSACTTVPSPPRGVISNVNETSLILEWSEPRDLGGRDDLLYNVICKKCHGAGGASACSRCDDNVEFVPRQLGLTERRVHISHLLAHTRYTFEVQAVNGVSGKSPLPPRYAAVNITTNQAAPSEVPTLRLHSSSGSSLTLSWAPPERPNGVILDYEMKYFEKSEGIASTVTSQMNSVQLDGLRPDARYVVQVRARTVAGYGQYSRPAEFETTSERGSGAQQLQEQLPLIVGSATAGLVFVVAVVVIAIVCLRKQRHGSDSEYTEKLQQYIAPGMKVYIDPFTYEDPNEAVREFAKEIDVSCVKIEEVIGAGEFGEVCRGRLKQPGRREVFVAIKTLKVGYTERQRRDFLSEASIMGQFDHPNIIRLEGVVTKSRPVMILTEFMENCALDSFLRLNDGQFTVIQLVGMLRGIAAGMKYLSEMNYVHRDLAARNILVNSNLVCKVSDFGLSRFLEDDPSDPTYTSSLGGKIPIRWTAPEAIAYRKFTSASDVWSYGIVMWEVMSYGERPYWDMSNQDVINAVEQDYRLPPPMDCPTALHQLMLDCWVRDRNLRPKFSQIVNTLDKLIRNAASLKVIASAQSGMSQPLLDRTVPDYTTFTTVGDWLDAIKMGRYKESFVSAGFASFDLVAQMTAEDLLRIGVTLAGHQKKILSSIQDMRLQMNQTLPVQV
Sequence of SGK3 (human) (Q96BR1 whole entry, looked up): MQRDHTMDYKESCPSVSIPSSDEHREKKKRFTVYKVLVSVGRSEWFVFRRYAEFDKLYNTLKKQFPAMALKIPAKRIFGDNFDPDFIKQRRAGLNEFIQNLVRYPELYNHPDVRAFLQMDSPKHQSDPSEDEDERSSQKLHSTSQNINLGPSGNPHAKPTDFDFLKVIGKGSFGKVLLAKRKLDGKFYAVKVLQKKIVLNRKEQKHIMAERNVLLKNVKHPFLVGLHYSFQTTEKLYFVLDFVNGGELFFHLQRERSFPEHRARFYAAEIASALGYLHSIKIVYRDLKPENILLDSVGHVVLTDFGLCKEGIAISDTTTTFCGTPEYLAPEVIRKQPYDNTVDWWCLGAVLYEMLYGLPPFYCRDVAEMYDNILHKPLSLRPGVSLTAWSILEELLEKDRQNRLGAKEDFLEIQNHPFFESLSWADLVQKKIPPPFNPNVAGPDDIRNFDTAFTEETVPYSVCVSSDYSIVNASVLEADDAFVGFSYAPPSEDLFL
Sequence of CAMK2A (human) (Q9UQM7 whole entry, looked up): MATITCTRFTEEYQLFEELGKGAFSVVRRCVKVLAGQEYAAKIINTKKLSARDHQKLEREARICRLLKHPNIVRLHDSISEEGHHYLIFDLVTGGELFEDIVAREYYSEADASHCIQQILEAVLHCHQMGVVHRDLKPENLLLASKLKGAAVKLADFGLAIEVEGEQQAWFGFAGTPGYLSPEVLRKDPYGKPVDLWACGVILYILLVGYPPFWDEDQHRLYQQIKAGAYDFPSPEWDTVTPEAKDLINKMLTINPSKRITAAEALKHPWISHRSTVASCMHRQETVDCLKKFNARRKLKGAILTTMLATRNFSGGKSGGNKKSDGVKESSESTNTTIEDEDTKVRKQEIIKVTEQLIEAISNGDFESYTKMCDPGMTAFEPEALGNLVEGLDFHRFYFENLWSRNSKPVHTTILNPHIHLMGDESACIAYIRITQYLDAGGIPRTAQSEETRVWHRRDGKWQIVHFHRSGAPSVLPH
Sequence of IRAK1 (human) (P51617 whole entry, looked up): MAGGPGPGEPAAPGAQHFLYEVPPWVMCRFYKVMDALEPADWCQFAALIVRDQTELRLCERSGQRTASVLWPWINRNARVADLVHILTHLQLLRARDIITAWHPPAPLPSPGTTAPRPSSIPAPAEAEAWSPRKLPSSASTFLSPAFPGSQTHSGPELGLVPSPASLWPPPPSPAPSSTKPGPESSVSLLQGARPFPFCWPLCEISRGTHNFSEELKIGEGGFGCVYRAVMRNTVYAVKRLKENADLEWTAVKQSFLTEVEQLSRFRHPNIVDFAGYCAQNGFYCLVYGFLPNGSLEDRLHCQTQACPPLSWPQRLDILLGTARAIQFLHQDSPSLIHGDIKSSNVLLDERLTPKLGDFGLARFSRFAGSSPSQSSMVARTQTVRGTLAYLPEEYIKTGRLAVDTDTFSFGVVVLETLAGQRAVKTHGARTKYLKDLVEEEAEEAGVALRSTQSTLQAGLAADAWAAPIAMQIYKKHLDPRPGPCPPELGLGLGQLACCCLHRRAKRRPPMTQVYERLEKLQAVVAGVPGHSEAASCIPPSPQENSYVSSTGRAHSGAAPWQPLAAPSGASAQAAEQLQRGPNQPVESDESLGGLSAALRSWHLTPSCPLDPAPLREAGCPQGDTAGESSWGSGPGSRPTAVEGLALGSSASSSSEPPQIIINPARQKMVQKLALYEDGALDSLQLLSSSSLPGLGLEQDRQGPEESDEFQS
Sequence of HIPK1 (human) (Q86Z02 whole entry, looked up): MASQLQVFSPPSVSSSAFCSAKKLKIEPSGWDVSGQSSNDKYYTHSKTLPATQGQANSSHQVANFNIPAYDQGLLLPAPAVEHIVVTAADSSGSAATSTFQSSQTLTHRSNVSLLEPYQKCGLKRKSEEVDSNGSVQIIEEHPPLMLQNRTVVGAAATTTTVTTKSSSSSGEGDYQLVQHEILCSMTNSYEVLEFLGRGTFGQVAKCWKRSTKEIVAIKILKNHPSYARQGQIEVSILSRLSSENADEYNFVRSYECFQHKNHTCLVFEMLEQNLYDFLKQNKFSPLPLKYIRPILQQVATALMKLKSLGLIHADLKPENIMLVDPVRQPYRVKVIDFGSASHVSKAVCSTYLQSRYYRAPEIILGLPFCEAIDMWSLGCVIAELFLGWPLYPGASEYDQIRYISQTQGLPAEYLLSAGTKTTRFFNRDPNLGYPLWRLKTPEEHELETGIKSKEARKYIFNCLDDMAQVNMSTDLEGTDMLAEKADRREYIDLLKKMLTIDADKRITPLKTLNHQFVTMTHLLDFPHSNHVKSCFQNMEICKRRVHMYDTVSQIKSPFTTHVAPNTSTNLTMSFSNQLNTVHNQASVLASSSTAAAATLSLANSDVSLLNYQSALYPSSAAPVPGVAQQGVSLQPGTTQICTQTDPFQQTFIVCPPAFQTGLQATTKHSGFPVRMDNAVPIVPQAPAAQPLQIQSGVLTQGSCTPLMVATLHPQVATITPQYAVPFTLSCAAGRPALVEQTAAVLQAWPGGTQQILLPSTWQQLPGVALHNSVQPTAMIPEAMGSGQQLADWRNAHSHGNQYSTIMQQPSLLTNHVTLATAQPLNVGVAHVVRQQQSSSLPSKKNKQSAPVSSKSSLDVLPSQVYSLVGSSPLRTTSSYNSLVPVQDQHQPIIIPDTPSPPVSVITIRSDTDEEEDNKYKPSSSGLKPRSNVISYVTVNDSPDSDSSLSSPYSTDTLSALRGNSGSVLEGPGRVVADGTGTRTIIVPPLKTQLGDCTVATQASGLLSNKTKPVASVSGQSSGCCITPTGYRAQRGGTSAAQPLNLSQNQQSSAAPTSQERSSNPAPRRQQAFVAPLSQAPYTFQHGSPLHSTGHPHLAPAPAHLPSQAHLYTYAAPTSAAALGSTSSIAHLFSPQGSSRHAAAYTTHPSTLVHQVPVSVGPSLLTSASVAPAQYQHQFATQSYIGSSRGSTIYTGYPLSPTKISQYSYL
Sequence of CAMK2D (human) (Q13557 whole entry, looked up): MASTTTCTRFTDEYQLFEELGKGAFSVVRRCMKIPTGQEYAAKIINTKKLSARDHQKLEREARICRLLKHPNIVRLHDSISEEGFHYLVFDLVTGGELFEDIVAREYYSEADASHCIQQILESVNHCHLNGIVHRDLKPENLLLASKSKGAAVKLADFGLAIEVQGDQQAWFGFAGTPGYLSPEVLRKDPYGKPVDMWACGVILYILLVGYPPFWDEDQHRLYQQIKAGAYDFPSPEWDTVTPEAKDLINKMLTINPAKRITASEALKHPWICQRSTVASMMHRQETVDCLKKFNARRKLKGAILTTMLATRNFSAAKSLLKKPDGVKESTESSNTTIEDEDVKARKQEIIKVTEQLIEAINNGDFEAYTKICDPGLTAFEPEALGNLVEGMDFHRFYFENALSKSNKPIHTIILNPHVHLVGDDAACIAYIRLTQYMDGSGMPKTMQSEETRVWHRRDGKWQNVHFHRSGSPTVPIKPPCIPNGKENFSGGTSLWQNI
Sequence of CAMK2B (human) (Q13554 whole entry, looked up): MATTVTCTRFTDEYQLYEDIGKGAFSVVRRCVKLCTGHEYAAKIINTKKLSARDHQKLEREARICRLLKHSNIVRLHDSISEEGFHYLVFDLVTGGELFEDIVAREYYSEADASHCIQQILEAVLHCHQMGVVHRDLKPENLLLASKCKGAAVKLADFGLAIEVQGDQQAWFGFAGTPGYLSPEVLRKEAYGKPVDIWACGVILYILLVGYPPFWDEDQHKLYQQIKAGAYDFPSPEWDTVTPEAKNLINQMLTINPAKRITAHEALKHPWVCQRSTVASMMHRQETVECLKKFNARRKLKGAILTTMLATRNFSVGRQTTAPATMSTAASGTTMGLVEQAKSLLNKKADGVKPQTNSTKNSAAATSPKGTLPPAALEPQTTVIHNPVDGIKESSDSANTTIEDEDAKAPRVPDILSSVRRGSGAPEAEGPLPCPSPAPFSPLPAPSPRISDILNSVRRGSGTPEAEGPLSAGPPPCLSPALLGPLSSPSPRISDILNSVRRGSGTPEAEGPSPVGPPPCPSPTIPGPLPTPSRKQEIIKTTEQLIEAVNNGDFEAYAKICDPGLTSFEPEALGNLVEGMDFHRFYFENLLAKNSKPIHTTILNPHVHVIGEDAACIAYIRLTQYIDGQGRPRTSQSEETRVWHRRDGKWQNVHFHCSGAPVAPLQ

With O=S(=O)(c1cccc2cnccc12)N1CCCNCC1 the residual activity [1] was 83.6%, the residual activity [2] was 120% and the residual activity [3] was 87.6%. It also gave a residual activity [4] of 93.2%, a residual activity [5] of 100% and a residual activity [6] of 97.8%. It also gave a residual activity [7] of 93.1%, a residual activity [8] of 83.9% and a residual activity [9] of 84.3%. The residual activity [10] was 91.6%, the residual activity [11] was 109% and the residual activity [12] was 99.9%. The residual activity [13] was 96.8%, the residual activity [14] was 72% and the residual activity [15] was 86.2%. The residual activity [16] was 95.8%, the residual activity [17] was 98.5% and the residual activity [18] was 94.8%. It also gave a residual activity [19] of 78.1%, a residual activity [20] of 91.6% and a residual activity [21] of 92.2%. It also gave a residual activity [22] of 80.2%, a residual activity [23] of 95.4% and a residual activity [24] of 65.8%. For the same compound, the residual activity [25] was 45.7%, the residual activity [26] was 96.3% and the residual activity [27] was 70.2%. For the same compound, the residual activity [28] was 93%, the residual activity [29] was 98.5% and the residual activity [30] was 79.6% and 87.7%. For the same compound, the residual activity [31] was 94.1%, the residual activity [32] was 97% and the residual activity [33] was 90.7%. For the same compound, the residual activity [34] was 94.6%, the residual activity [35] was 123% and the residual activity [36] was 96.4%.
Work on CC[n+]1c(/C=C/N(C)c2ccccc2)n(-c2ccccc2)c2ccc(-c3nc4ccccc4s3)cc21 yielded a residual activity [1] of 94.3%, a residual activity [2] of 106% and a residual activity [3] of 90.9%. For the same compound, the residual activity [4] was 103%, the residual activity [5] was 107% and the residual activity [37] was 103%. The residual activity [6] was 95.6%, the residual activity [7] was 103% and the residual activity [8] was 105%. The residual activity [9] was 104%, the residual activity [10] was 114% and the residual activity [11] was 161%. For the same compound, the residual activity [12] was 103%, the residual activity [38] was 92.9% and the residual activity [39] was 94.7%. It also gave a residual activity [13] of 99.5%, a residual activity [14] of 97.4% and a residual activity [15] of 102%. It also gave a residual activity [16] of 92.2%, a residual activity [17] of 102% and a residual activity [18] of 77.7%. It also gave a residual activity [40] of 103%, a residual activity [41] of 95.7% and a residual activity [19] of 97.1%. For the same compound, the residual activity [20] was 102%, the residual activity [21] was 107% and the residual activity [22] was 98.4%. The residual activity [23] was 102%, the residual activity [24] was 97.4% and the residual activity [25] was 103%. The residual activity [26] was 108%, the residual activity [27] was 99.2% and the residual activity [28] was 95.4%. The residual activity [29] was 94%, the residual activity [30] was 104% and 105% and the residual activity [31] was 109%. It also gave a residual activity [32] of 95.1%, a residual activity [33] of 92.7% and a residual activity [34] of 87.5%. It also gave a residual activity [35] of 99.4%.
COc1ccc2c(c[n+](C)c3c4cc5c(cc4ccc23)OCO5)c1OC gave a residual activity [1] of 93.9%, a residual activity [2] of 101% and a residual activity [3] of 106%. For the same compound, the residual activity [4] was 98.9%, the residual activity [5] was 102% and the residual activity [37] was 94.4%. The residual activity [6] was 97%, the residual activity [7] was 95.9% and the residual activity [9] was 98.8%. For the same compound, the residual activity [10] was 103%, the residual activity [11] was 116% and the residual activity [12] was 99.5%. The residual activity [38] was 88.9%, the residual activity [39] was 101% and the residual activity [13] was 100%. For the same compound, the residual activity [14] was 107%, the residual activity [15] was 103% and the residual activity [16] was 94.6%. The residual activity [17] was 98.8%, the residual activity [18] was 78.9% and the residual activity [40] was 100%. It also gave a residual activity [41] of 96.2%, a residual activity [19] of 89.3% and a residual activity [20] of 96%. It also gave a residual activity [21] of 87.5%, a residual activity [23] of 95.4% and a residual activity [24] of 99.3%. The residual activity [25] was 96.1%, the residual activity [26] was 101% and the residual activity [27] was 84.2%. For the same compound, the residual activity [28] was 102%, the residual activity [29] was 90.4% and the residual activity [30] was 97.6% and 98.8%. The residual activity [31] was 103%, the residual activity [32] was 71.6% and the residual activity [33] was 99.2%. For the same compound, the residual activity [34] was 98.7%, the residual activity [35] was 105% and the residual activity [36] was 96.1%.
